This is an account of results in the NIST ThermoML archive (doi:10.1021/je2009208).

± gives the expanded uncertainty stated by the source.

The conditions of data set [1]: 298.15 K; 101.33 kPa; Liquid; Vibrating tube method.
A short description of data set [2]: refractive index (Na D-line) (dimensionless). Conditions: 293.15 K; 101.33 kPa; Liquid; Standard Abbe refractometry.

Turning to `C=CC#N` [acrylonitrile], the mass density in data set [1] is listed as 800.6 ± 0.2 kg/m3. In addition, the refractive index in data set [2] is reported as 1.3908 ± 0.0008.
In the same order, the values of `CO` [methanol] are 791.3 ± 0.2 kg/m3 and 1.3286 ± 0.0008.
`O` [water]: in data set [2], the refractive index worked out at 1.3333 ± 0.0008.

In general, mass density refers to the mass of a sample divided by its volume. By refractive index is commonly meant the speed of light in vacuum divided by its phase velocity in the sample.
